In BindingDB's records for doi:10.1021/jm7011613 (Abbott Laboratories, 2008):
pEC50: −log10 of the molar value.

molecular target: Cannabinoid receptor 2 (Homo sapiens, UniProt P34972); experiment: Radioligand Binding Assay
Protocol: IC50 values for test compounds were determined from nonlinear regression analysis of data collected from ligand binding experiments. The inhibition constant (Ki) was calculated from IC50 value by the Cheng and Prusoff equation.

Chain of Cannabinoid receptor 2 (P34972 whole entry): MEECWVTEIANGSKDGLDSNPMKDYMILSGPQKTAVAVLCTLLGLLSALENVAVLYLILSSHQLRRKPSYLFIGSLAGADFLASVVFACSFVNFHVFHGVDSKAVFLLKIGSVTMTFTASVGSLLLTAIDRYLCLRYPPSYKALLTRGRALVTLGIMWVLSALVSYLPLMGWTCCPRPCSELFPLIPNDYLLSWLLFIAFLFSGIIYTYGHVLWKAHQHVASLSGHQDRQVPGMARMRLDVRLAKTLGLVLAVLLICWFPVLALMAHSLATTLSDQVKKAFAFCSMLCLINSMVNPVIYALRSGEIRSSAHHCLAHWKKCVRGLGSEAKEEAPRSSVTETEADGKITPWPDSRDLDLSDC

| Structure (SMILES) | pEC50 |
| --- | --- |
| CC1(C)C(C(=O)c2cn(CCN3CCOCC3)c3cccc(N)c23)C1(C)C [1-[2-(morpholin-4-yl)ethyl]-3-[(2,2,3,3-tetramethylcyclopropyl)carbonyl]-1H-indol-4-amine] | 6.67 |
| CC1(C)C(C(=O)c2cn(CC3CCOCC3)c3cccc(OCc4ccccc4)c23)C1(C)C [4-(benzyloxy)-1-(oxan-4-ylmethyl)-3-[(2,2,3,3-tetramethylcyclopropyl)carbonyl]-1H-indole] | 6.30 |
| CC1(C)C(C(=O)c2cn(CC3CCOCC3)c3cc(Cl)ccc23)C1(C)C [6-chloro-1-(oxan-4-ylmethyl)-3-[(2,2,3,3-tetramethylcyclopropyl)carbonyl]-1H-indole] | 7.68 |
| CC1(C)C(C(=O)c2cn(CC3CCOCC3)c3cc(OCc4ccccc4)ccc23)C1(C)C [6-(benzyloxy)-1-(oxan-4-ylmethyl)-3-[(2,2,3,3-tetramethylcyclopropyl)carbonyl]-1H-indole] | 6.78 |
| COCc1ccc2c(c1)c(C(=O)C1C(C)(C)C1(C)C)cn2CC1CCOCC1 [5-(methoxymethyl)-1-(oxan-4-ylmethyl)-3-[(2,2,3,3-tetramethylcyclopropyl)carbonyl]-1H-indole] | 7.13 |
| CC1(C)C(C(=O)c2cn(CC3CCOCC3)c3c(F)c(F)c(F)c(F)c23)C1(C)C [4,5,6,7-tetrafluoro-1-(oxan-4-ylmethyl)-3-[(2,2,3,3-tetramethylcyclopropyl)carbonyl]-1H-indole] | 7.40 |
| COc1ccc2c(c1)c(C(=O)C1C(C)(C)C1(C)C)cn2CC1CCOCC1 [5-methoxy-1-(oxan-4-ylmethyl)-3-[(2,2,3,3-tetramethylcyclopropyl)carbonyl]-1H-indole] | 7.00 |
| CC1(C)C(C(=O)c2cn(CC3CCOCC3)c3ccc(O)cc23)C1(C)C [1-(oxan-4-ylmethyl)-3-[(2,2,3,3-tetramethylcyclopropyl)carbonyl]-1H-indol-5-ol] | 7.96 |
| CC1(C)C(C(=O)c2cn(CC3CCOCC3)c3ccc(C#N)cc23)C1(C)C [1-(oxan-4-ylmethyl)-3-[(2,2,3,3-tetramethylcyclopropyl)carbonyl]-1H-indole-5-carbonitrile] | 6.58 |
| CC1(C)C(C(=O)c2cn(CC3CCOCC3)c3ccc(N)cc23)C1(C)C [1-(oxan-4-ylmethyl)-3-[(2,2,3,3-tetramethylcyclopropyl)carbonyl]-1H-indol-5-amine] | 7.81 |
| CC1(C)C(C(=O)c2cn(CC3CCOCC3)c3ccc(CO)cc23)C1(C)C [[1-(oxan-4-ylmethyl)-3-[(2,2,3,3-tetramethylcyclopropyl)carbonyl]-1H-indol-5-yl]methanol] | 7.01 |
| CC1(C)C(C(=O)c2cn(CC3CCOCC3)c3ccccc23)C1(C)C [1-(oxan-4-ylmethyl)-3-[(2,2,3,3-tetramethylcyclopropyl)carbonyl]-1H-indole] | 8.02 |
| Cc1c(C(=O)C2C(C)(C)C2(C)C)c2ccccc2n1CCN1CCOCC1 [4-(2-{2-methyl-3-[(2,2,3,3-tetramethylcyclopropyl)carbonyl]-1H-indol-1-yl}ethyl)morpholine] | 6.44 |
| COc1cccc2c1c(C(=O)C1C(C)(C)C1(C)C)cn2CC1CCOCC1 [4-methoxy-1-(oxan-4-ylmethyl)-3-[(2,2,3,3-tetramethylcyclopropyl)carbonyl]-1H-indole] | 7.04 |
| CC1(C)C(C(=O)c2cn(CC3CCOCC3)c3ccc(F)cc23)C1(C)C [5-fluoro-1-(oxan-4-ylmethyl)-3-[(2,2,3,3-tetramethylcyclopropyl)carbonyl]-1H-indole] | 7.44 |
| CC1(C)C(C(=O)c2cn(CC3CCOCC3)c3cccc(O)c23)C1(C)C [1-(oxan-4-ylmethyl)-3-[(2,2,3,3-tetramethylcyclopropyl)carbonyl]-1H-indol-4-ol] | 7.14 |
| CC1(C)C(C(=O)c2cn(CC3CCOCC3)c3ccc(Cl)cc23)C1(C)C [5-chloro-1-(oxan-4-ylmethyl)-3-[(2,2,3,3-tetramethylcyclopropyl)carbonyl]-1H-indole] | 6.88 |
| CC1(C)C(C(=O)c2cn(CC3CCOCC3)c3ccc(Br)cc23)C1(C)C [5-bromo-1-(oxan-4-ylmethyl)-3-[(2,2,3,3-tetramethylcyclopropyl)carbonyl]-1H-indole] | 6.41 |
| CC1(C)C(C(=O)c2cn(CC3CCOCC3)c3cc(O)c(O)cc23)C1(C)C [1-(oxan-4-ylmethyl)-3-[(2,2,3,3-tetramethylcyclopropyl)carbonyl]-1H-indole-5,6-diol] | 7.55 |
| CC1(C)C(C(=O)c2cn(CC3CCOCC3)c3cc(C#N)ccc23)C1(C)C [1-(oxan-4-ylmethyl)-3-[(2,2,3,3-tetramethylcyclopropyl)carbonyl]-1H-indole-6-carbonitrile] | 7.28 |
| CC1(C)C(C(=O)c2cn(CCN3CCOCC3)c3ccccc23)C1(C)C [4-(2-{3-[(2,2,3,3-tetramethylcyclopropyl)carbonyl]-1H-indol-1-yl}ethyl)morpholine] | 7.76 |
| CC1(C)C(C(=O)c2cn(CC3CCOCC3)c3cc4c(cc23)OCO4)C1(C)C [5-(oxan-4-ylmethyl)-7-[(2,2,3,3-tetramethylcyclopropyl)carbonyl]-2H,5H-[1,3]dioxolo[4,5-f]indole] | 7.53 |
| CC1(C)C(C(=O)c2cn(CC3CCOCC3)c3cc(O)ccc23)C1(C)C [1-(oxan-4-ylmethyl)-3-[(2,2,3,3-tetramethylcyclopropyl)carbonyl]-1H-indol-6-ol] | 7.73 |
